How the values were obtained:
[1] = system: cultured rat hippocampal neurons; test: Intracellular free Mg2+ analysis (Magnesium Green) in hippocampal neuron cultures
Description: (§3) Neurons were plated onto Matrigel® (BD)-coated 8×8 mm coverslips or 6-well cell plates (Corning).
[Mg^2+]i was determined by using Magnesium Green™ (MgGreen, Invitrogen).
Where F(a.u.) is the mean fluorescent density (arbitrary units) in the branch of interest which was quantified by using Image-Pro Plus software (IPP, Media Cybernetics, Carlsbad, Calif.), and Ddiameter is the mean width of the same selected branch in DIC image.

[2] = system: hippocampal neurons; test: Functional terminal density by FM1-43 imaging
Description: as §3
Background FM, determined by imaging after unloading of FM dye following 480 APs at 2 Hz, was subtracted from the physiological action potential image. Terminals containing detectable amount of FM after subtraction were considered to be functional.
FM 1-43+ puncta number per μm^2 of dendrite was used to estimate functional presynaptic terminal density.

[3] = system: hippocampal neurons; details: threonate 0-150 μM, 2 days
Description: (§1) For chemical structure see supplemental FIG. 1.
Neuronal cultures were washed three times in 0.01 M PBS followed by fixation for 20 min in 4% paraformaldehyde at 4° C. The neuronal culture coverslips were then washed in PBS before incubation in blocking solution containing 0.1% Triton X-100 and 1% bovine serum albumin for 30 min at room temperature. […] Finally, neurons were mounted onto slides with anti-fade fluorescent mounting medium (Vector Laboratories) and stored at 4° C. for 2 days.
Cultures were imaged with a confocal laser inverted microscope (Olympus IX-70) equipped with a 60× (NA 1.2) objective. […] The density of synaptophysin (Syn) and PSD-95 was estimated from images by analyzing with IPP. The puncta of Syn and PSD-95, localized at the dendrites labeled by the neuronal marker MAP2, were counted manually. To determine the density of Syn and PSD-95 colocalization, we aligned two sets of images and resulting yellow clusters (Syn: red; PSD-95: green) localized at dendritic were quantified. Fluorescence spots (red and green) having a diameter between 0.1 and 0.6 μm were classified.

[4] = system: hippocampal neurons; details: threonate (150 M) for 2 days, 0.6 Mg, p<0.01
Excerpt: Mitochondrial transmembrane potential (Δψm) of hippocampal neurons was observed microscopically (Olympus IX-70) by using 5,5′,6,6′-tetrachloro-1,1′,3,3′-tetraethylbenzimidazolylcarbocyanine iodide (JC-1, Invitrogen). The monomeric form of JC-1 has an emission maximum at 529 nm. At higher concentrations or potentials the dye forms red fluorescent J-aggregates with an emission maximum of 590 nm. The ratio of J-aggregate/J-monomer is used as an estimate of Δψm.

[5] = system: hippocampal neurons; details: threonate 0-150 μM, 2 days; remark: listed apart in the source
Excerpt: as §1
(§2) Proteins were transferred to PVDF membranes (Millipore), probed with primary antibodies against Synaptophysin (Millipore), RIM1 and Rab3a (Synaptic System), PSD-95, NR2B, β-tubulin and/or β-actin (all from Cell Signaling Technology) and then followed by an appropriate HRP-coupled secondary antibody (Cell Signaling Technology). The signals were detected by ECL detection reagent (GE Healthcare) and captured on autoradiography film (Kodak). For quantification of protein signals, the integrated optical density (IOD) was measured with IPP, and β-tubulin or β-actin on the same lane served as loading controls.

[6] = system: hNSC-derived neurons
Description: Human fetal cortices-derived neural stem cells (hNSC; Angecon, China) were cultured in hNSC medium (Angecon) according to guidelines provided by Angecon. hNSCs were maintained in this medium for 10-14 days, passaged using Accutase (Invitrogen), washed and replated at a dilution of 1:3 to 1:5.
A previously described differentiation protocol was used to differentiate hNSCs to neurons. Briefly, hNSC cultures were dissociated into single cells with Accutase, and then plated on polyornithine/laminin (Sigma)-coated 6-well plates at 50,000 cells per cm^2 in neural maintenance medium with EGF (Invitrogen) and FGF2 (Pepro Tech) at a concentration of 10 ng ml^−1. Neural maintenance medium consists of a 1:1 mixture of DMEM/F12 and Neurobasal medium (Invitrogen), 1×N2 (Invitrogen), 1×B27 (Invitrogen), 1 mM L-glutamine, 0.1 mM non-essential amino acids, 5 μg ml^−1 insulin, 0.1 mM 2-mercaptoethanol, 25 U ml^−1 penicillin and […] streptomycin. […] Neurons were maintained 10-14 days in this medium; medium was replaced every day. When neuroepithelial cells appeared, Dispase (Roche) was used to collect cells. They were replated in neural maintenance medium with EGF and FGF2 at 20 ng ml^−1 for 2-4 days, then changed to neural maintenance medium and cultured for up to 80 days, replacing medium every other day.
as §2

[7] = threonate 150 μM, time course 0-36 hr
[8] = human neurons treated at day 90, dose-dependent, up to 400 μM

C=C1[C@@H](C)[C@H]2[C@H](Cc3ccccc3)NC(=O)[C@]23OC(=O)/C=C/[C@H](O)CCC[C@@H](C)C/C=C/[C@H]3[C@@H]1O [CB, cytochalasin B, reference compound]
intracellular [Mg2+] relative to control, inhibitor alone ([1]; 4 hr, without threonate): did not alter
density of functional terminals relative to control, inhibitor alone ([2]; 4 hr, without threonate): did not affect

NCC(=O)O [glycinate, reference compound]
ability to increase intracellular [Mg2+], comparison of anions [1]: threonate was the only one able to increase
effect on functional terminal density, comparison of anions [2]: no significant effects

O=C(CCc1ccc(O)cc1)c1c(O)cc(O)cc1O [phloretin, reference compound]
decrease of intracellular [Mg2+] relative to placebo, inhibitor alone ([1]; 4 hr, without threonate, p<0.01): 10.4%
decrease of functional terminal density, inhibitor alone ([2]; 4 hr, without threonate, p<0.05): 10.5%

O=C(O)[C@H](O)[C@@H](O)CO [threonate, (2R,3S)-2,3,4-trihydroxybutanoate]
threonate-mediated increase of intracellular [Mg2+] in the presence of CB ([1]; 4 hr, with cytochalasin B (GLUTs inhibitor)): prevented
increase of intracellular [Mg2+] in the presence of phloretin ([1]; 4 hr, with phloretin (SVCT2 inhibitor), p<0.0001): 23.5%
threonate concentration that induced the largest change in intracellular [Mg2+] ([1]; 2 day treatment, 0-200 μM tested): 150 µM
effect on intracellular [Mg2+] ([1]; 2 day treatment, threonate 0-200 μM, extracellular [Mg2+] 0.6, 0.8 or 1.2 mM): increase of intracellular [Mg^2+] in a dosage-dependent manner
effect on intracellular [Mg2+] at reduced extracellular [Mg2+] ([1]; threonate 150 μM, 4 hr, 0.1 mM extracellular [Mg2+]): no longer induced elevation
increase of intracellular [Mg2+] ([1]; threonate 150 μM, 4 hr, 0.6 mM extracellular [Mg2+] (Example 3)): ~27%
persistence of the intracellular [Mg2+] increase [1, 7]: persisted for the entire course of the experiment
time at which effect on intracellular [Mg2+] was maximal [1, 7]: 2 h
increase of intracellular [Mg2+] ([1]; threonate (150 mM), 4 hr, 0.6 mM [Mg2+]o (Example 7), p<0.0001): 29.6%
colocalization of Syn/PSD-95 [3]: significantly upregulated
density of PSD-95 puncta [3]: significantly upregulated
density of Syn puncta [3]: significantly upregulated
increase of mitochondrial membrane potential ΔΨm (JC-1 aggregate/monomer ratio) [4]: 49.6%
NR2B-containing NMDAR expression (Western blot) [5]: significantly upregulated
PSD-95 expression (Western blot) [5]: significantly increased
RIM1 expression (Western blot) [5]: significantly increased
Rab3a expression (Western blot) [5]: significantly increased
Syn expression (Western blot) [5]: significantly increased
effect on functional terminal density in the presence of CB ([2]; threonate 150 μM, 4 hr, with cytochalasin B): unable to elevate
increase of functional terminal density relative to control in the presence of phloretin ([2]; threonate 150 μM, 4 hr, with phloretin, p<0.001): 20.4%
number of functional terminals, dose dependence ([2]; threonate 50-150 μM, 2 days, extracellular [Mg2+] 0.6, 0.8 or 1.2 mM): increased in threonate-treated neurons in a dose-dependent manner
effect on functional terminal density at reduced extracellular [Mg2+] ([2]; threonate 4 hr, 0.1 mM extracellular [Mg2+]): prevented threonate from increasing functional terminal density
increase of functional terminal density ([2]; threonate (150 M) for 4 hr, 0.6 mM extracellular [Mg2+] (Example 5)): 23%
threonate dose response curve in human neurons compared to the rat dose response curve ([6]; effects continued to increase even at 400 μM): shifted toward a higher concentration
PSD-95 expression (Western blot) [6, 8]: significantly increased
Syn expression (Western blot) [6, 8]: significantly increased
